According to ChEMBL document CHEMBL5360612, “Macrocyclic Carbon-Linked Pyrazoles As Novel Inhibitors of MCL-1” (ACS Med Chem Lett, 2023):
Converted amounts (≈) assume the structure as drawn. “And” between values parts separate entries of the source, which are not always exact repeats. Equal entries are not always repeated.

Legend:
[1] = Solubility of compound in pH 7 buffer incubated for 3 days by LC-MS/MS analysis; format: physicochemical; conditions: time 3 day
[2] = test system: MOLP-8; assay: Induction of apoptosis in human MOLP8 cells using luminescent caspase-3/7 as substrate incubated for 2 hrs by Caspase-Glo 3/7 assay; format: functional, cell-based; conditions: MOLP-8, 2 h
[3] = Ratio of AC50 for induction of apoptosis in human MOLP8 cells using luminescent caspase-3/7 as substrate to Ki for displacement of Cy5-labeled BIM BH3 peptide (H3N-(C/Cy5Mal)-WIAQELRRIGDEFN-OH) from MCL-1 (unknown origin) assessed as inhibition constant
[4] = target: Induced myeloid leukemia cell differentiation protein Mcl-1 (Homo sapiens, UniProt Q07820); assay: Displacement of Cy5-labeled BIM BH3 peptide (H3N-(C/Cy5Mal)-WIAQELRRIGDEFN-OH) from MCL-1 (unknown origin) assessed as inhibition constant incubated for 60 mins by HTRF assay
[5] = Solubility of compound in pH 2 buffer incubated for 3 days by LC-MS/MS analysis; format: physicochemical; conditions: time 3 day
[6] = target: T1, Cytochrome P450 1A2 (Homo sapiens, UniProt P05177); assay: Inhibition of recombinant human CYP1A2 by fluorescence microplate reader assay; format: ADME
T1 sequence (P05177 whole entry): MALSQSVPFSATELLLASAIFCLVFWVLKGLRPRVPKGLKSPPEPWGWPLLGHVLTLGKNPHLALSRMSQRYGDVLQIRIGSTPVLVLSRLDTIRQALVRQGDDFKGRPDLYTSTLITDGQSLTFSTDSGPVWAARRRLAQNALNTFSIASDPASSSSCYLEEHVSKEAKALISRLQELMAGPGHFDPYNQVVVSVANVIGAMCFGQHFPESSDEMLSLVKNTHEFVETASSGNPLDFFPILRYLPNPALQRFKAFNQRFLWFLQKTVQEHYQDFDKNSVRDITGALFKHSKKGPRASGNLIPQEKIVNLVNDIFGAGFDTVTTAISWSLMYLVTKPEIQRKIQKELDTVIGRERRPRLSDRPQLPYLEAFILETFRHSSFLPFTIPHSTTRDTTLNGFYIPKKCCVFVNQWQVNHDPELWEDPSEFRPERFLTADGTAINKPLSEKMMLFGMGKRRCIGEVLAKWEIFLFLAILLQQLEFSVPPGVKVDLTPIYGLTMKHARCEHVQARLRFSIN

[7] = test system: KMS-12-PE; assay: Induction of apoptosis in MCL-1 knockout human KMS-12-PE cells overexpressing BFL-1; format: functional, cell-based
[8] = target: Voltage-gated inwardly rectifying potassium channel KCNH2 (Homo sapiens, UniProt Q12809); assay: […] from human ERG by PatchXpress assay; format: toxicity
[9] = Cardiotoxicity in human iPSC-CM assessed as calcium transients at 10 uM by CTCM assay; format: toxicity, cell-based
[10] = target: T2, Cytochrome P450 2C8 (Homo sapiens, UniProt P10632); assay: Inhibition of recombinant human CYP2C8 by fluorescence microplate reader assay; format: ADME
T2 sequence (P10632 whole entry): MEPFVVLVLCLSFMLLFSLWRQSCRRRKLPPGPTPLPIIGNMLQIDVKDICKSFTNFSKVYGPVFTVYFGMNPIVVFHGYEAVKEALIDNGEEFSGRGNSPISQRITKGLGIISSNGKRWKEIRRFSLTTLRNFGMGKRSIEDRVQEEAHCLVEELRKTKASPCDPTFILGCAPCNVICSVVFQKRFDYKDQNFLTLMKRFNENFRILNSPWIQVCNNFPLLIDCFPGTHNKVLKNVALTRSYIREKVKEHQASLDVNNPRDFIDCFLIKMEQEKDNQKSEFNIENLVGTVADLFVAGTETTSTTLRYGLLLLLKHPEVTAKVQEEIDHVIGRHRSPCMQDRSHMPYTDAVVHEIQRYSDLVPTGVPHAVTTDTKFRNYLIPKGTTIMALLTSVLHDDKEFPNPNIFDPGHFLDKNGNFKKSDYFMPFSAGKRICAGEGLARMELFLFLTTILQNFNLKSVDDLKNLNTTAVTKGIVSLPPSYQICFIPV

[11] = Intrinsic clearance in mouse liver microsomes; format: ADME, Microsome; conditions: read-out: CLH
[12] = target: Cytochrome P450 2D6 (Homo sapiens, UniProt P10635); assay: Inhibition of recombinant human CYP2D6 by fluorescence microplate reader assay; format: ADME
[13] = Cardiotoxicity in human iPSC-CM assessed as calcium transients at 3 uM by CTCM assay; format: toxicity, cell-based
[14] = Cardiotoxicity in human iPSC-CM assessed as calcium transients at 0.1 uM by CTCM assay; format: toxicity, cell-based
[15] = target: Cytochrome P450 3A4 (Homo sapiens, UniProt P08684); assay: Inhibition of recombinant human CYP3A4 by fluorescence microplate reader assay; format: ADME
[16] = target: Cytochrome P450 2C19 (Homo sapiens, UniProt P33261); assay: Inhibition of recombinant human CYP2C19 by fluorescence microplate reader assay; format: ADME
[17] = target: Cytochrome P450 2C9 (Homo sapiens, UniProt P11712); assay: Inhibition of recombinant human CYP2C9 by fluorescence microplate reader assay; format: ADME
[18] = Cardiotoxicity in human iPSC-CM assessed as calcium transients at 0.3 uM by CTCM assay; format: toxicity, cell-based
[19] = Cardiotoxicity in human iPSC-CM assessed as calcium transients at 1 uM by CTCM assay; format: toxicity, cell-based
[20] = Intrinsic clearance in human liver microsomes; format: ADME, Microsome; conditions: read-out: CLH
[21] = Chromatographic hydrophobicity index, log D of the compound at pH 7.4 by UPLC-TOF analysis; format: physicochemical; conditions: buffer
[22] = test system: KMS-12-PE; assay: Induction of apoptosis in human KMS-12-PE cells; format: functional, cell-based

Induced myeloid leukemia cell differentiation protein Mcl-1, sequence (Q07820 whole entry): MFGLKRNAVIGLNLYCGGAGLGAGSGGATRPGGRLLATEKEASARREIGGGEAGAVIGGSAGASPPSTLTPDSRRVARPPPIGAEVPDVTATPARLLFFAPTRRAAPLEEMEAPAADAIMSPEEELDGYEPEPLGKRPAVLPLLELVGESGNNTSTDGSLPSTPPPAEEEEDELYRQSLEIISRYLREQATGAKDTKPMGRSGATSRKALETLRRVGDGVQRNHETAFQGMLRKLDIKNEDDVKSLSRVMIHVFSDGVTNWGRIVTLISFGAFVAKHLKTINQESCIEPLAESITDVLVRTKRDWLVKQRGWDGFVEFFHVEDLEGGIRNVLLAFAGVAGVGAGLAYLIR
Cytochrome P450 2C9, sequence (P11712 whole entry): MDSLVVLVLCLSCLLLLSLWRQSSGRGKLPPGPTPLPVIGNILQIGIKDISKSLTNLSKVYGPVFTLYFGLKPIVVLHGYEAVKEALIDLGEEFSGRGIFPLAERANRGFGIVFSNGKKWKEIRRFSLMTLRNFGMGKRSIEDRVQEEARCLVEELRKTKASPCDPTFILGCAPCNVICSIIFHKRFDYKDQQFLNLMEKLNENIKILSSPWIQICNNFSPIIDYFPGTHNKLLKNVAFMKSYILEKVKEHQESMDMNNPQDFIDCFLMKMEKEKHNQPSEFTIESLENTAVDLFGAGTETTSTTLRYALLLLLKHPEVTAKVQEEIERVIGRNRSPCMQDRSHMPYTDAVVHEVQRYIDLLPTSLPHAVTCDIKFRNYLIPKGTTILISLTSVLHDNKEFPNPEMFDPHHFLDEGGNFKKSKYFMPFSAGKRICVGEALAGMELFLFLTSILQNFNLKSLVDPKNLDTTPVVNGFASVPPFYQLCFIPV
Cytochrome P450 3A4, sequence (P08684 whole entry): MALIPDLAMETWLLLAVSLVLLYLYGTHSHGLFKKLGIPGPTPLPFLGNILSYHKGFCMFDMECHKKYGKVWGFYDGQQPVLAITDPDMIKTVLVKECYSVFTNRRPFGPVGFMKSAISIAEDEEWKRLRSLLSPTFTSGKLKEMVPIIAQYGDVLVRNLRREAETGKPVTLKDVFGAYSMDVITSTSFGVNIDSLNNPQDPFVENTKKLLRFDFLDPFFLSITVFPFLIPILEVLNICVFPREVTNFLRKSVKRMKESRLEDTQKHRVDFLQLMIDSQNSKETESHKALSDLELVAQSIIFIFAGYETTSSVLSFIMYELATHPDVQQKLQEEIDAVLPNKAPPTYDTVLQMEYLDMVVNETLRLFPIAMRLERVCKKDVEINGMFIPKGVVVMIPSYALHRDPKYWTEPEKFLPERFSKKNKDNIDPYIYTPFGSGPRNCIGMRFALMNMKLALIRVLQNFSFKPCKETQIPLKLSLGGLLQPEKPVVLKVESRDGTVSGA
Voltage-gated inwardly rectifying potassium channel KCNH2, sequence (Q12809 whole entry): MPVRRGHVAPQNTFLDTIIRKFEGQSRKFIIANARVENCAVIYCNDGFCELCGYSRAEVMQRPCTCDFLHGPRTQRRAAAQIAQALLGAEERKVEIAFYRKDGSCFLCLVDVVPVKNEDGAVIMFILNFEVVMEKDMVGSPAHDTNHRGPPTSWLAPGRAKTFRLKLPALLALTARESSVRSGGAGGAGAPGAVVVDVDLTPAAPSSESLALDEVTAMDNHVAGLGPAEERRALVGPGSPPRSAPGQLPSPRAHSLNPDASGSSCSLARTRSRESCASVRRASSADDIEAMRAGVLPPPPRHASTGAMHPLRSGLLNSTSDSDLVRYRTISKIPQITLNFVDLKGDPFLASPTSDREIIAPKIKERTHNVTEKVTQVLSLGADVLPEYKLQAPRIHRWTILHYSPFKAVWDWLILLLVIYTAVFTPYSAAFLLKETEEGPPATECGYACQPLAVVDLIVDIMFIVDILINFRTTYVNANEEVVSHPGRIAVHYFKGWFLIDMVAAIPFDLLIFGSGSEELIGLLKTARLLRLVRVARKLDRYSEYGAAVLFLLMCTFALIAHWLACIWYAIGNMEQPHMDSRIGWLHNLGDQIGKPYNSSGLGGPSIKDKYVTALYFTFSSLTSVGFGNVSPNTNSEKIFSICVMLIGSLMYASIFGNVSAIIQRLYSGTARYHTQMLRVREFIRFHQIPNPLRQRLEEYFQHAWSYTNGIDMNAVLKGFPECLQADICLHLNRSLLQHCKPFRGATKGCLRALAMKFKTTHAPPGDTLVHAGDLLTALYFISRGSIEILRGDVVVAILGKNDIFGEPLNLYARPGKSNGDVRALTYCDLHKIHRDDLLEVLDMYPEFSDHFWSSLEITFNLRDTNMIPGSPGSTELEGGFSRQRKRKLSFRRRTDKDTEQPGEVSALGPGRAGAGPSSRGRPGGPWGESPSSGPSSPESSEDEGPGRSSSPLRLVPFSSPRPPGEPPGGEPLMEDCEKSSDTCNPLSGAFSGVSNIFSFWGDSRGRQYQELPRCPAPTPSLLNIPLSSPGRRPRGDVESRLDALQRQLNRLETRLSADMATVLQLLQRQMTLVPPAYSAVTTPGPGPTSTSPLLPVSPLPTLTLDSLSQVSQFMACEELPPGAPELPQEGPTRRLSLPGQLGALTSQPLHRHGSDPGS
Cytochrome P450 2D6, sequence (P10635 whole entry): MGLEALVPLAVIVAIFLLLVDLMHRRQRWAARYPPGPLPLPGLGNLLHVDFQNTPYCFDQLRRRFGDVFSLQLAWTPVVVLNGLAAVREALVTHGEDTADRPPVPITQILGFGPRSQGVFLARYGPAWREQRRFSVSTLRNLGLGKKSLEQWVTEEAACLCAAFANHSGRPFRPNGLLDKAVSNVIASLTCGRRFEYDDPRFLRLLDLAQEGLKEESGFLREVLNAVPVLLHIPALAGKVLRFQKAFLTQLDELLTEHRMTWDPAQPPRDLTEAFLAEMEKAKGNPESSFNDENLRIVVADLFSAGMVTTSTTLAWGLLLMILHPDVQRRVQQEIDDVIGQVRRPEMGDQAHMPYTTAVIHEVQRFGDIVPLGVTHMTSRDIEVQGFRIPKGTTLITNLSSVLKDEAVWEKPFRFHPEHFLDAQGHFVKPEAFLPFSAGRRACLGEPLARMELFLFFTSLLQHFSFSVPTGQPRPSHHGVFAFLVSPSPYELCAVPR
Cytochrome P450 2C19, sequence (P33261 whole entry): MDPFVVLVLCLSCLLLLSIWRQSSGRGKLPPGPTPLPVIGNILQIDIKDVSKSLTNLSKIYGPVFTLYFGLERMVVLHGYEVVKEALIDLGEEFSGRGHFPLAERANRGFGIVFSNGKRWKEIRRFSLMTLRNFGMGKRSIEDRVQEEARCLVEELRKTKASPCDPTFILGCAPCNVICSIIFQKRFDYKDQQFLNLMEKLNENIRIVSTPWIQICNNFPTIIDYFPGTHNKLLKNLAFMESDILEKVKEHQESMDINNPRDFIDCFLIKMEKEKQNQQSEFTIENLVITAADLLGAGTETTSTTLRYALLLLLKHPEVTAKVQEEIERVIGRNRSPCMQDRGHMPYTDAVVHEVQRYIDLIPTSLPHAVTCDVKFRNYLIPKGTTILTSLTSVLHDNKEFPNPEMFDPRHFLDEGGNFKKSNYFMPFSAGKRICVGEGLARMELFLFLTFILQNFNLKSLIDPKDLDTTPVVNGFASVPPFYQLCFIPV

Row | SMILES | solubility at 72 h [1] | AC50 [2] | Ratio [3] | Ki [4] | solubility at 72 h [5] | further results
1 | Cc1nn(C)c2c1CSCc1cc(n(C)n1)CCc1cc(c3ccccc3c1)OCCCc1c(C(=O)[O-])n(C)c3c-2c(Cl)ccc13.[Na+] | 210 µM | 45 nM | 1406 | 0.032 nM | < 0.04 µM | 
2 | Cn1nc2cc1CSc1cc(c3ccccc3c1)OCCCc1c(C(=O)O)n(C)c3c(c(Cl)ccc13)-c1c(cnn1C)CSC2 | < 0.49 µM |  | 738 and >900 |  | < 0.55 µM | 
3 | COCCn1c(C(=O)O)c2c3ccc(Cl)c(c31)-c1c(cnn1C)CSCc1cc(n(C)n1)CCc1cc(c3ccc(F)cc3c1)OCCC2 | 10.4 µM (≈ 7.3 µg/mL) | 43 nM | 1954 | 0.022 nM | < 0.02 µM | 
4 | COCCOCCc1nn(C)c2c1CSCc1cc(n(C)n1)CCc1cc(c3ccc(F)cc3c1)OCCCc1c(C(=O)O)n(C)c3c-2c(Cl)ccc13 | 460 µM (≈ 350 µg/mL) | 16 nM | 1230 | 0.013 nM | < 0.29 µM | 
5 | CN(C)CCn1c(C(=O)O)c2c3ccc(Cl)c(c31)-c1c(cnn1C)CSCc1cc(n(C)n1)CCc1cc(c3ccc(F)cc3c1)OCCC2 |  | 120 nM | 3530 | 0.034 nM |  | 
6 | COCCOCCn1c(C(=O)O)c2c3ccc(Cl)c(c31)-c1c(cnn1C)CSCc1cc(n(C)n1)CCc1cc(c3ccc(F)cc3c1)OCCC2 | 520 µM (≈ 388 µg/mL) | 52 nM | 2600 | 0.02 nM | < 0.23 µM | 
7 | COCCOCc1nn(C)c2c1CSCc1cc(n(C)n1)CCc1cc(c3ccccc3c1)OCCCc1c(C(=O)O)n(C)c3c-2c(Cl)ccc13 | 590 µM (≈ 430 µg/mL) | 43 nM | 1870 | 0.023 nM | < 0.06 µM | 
8 | COCCOCc1nn(C)c2c1CSCc1cc(n(C)n1)CCc1cc(c3ccc(F)cc3c1)OCCCc1c(C(=O)O)n(C)c3c-2c(Cl)ccc13 | 580 µM (≈ 433 µg/mL) | 14 nM | 777 | 0.018 nM | < 0.02 µM | IC50 [6]: > 20000 nM; AC50 [7]: > 30000 nM; IC50 [8]: > 30000 nM; Activity [9]: Non-Toxic; IC50 [10]: 9600 nM; microsomal CLint [11]: 157 µL/min/mg; IC50 [12]: > 20000 nM; Activity [13]: Non-Toxic; Activity [14]: Non-Toxic; IC50 [15]: > 20000 nM; IC50 [16]: > 20000 nM; IC50 [17]: 19000 nM; Activity [18]: Non-Toxic; Activity [19]: Non-Toxic; microsomal CLint [20]: 48 µL/min/mg; chromatographic logD [21]: 2.49; AC50 [22]: 111 nM
9 | Cn1nc2cc1CCc1cc(c3ccc(F)cc3c1)OCCCc1c(C(=O)O)n(CCN3CCOCC3)c3c(c(Cl)ccc13)-c1c(cnn1C)CSC2 | 550 µM (≈ 417 µg/mL) | 76 nM | 3800 | 0.02 nM | 580 µM (≈ 439 µg/mL) | IC50 [6]: > 20000 nM; AC50 [7]: > 30000 nM; IC50 [8]: > 30000 nM; Activity [9]: Non-Toxic; IC50 [10]: 5600 nM; microsomal CLint [11]: 24 µL/min/mg; IC50 [12]: 10500 nM; Activity [13]: Non-Toxic; Activity [14]: Non-Toxic; IC50 [15]: 9500 nM; IC50 [16]: > 20000 nM; IC50 [17]: > 20000 nM; Activity [18]: Non-Toxic; Activity [19]: Non-Toxic; microsomal CLint [20]: 43 µL/min/mg; chromatographic logD [21]: 2.53; AC50 [22]: 407 nM
10 | COCCOCCn1nc(C)c2c1CSCc1cc(n(C)n1)CCc1cc(c3ccc(F)cc3c1)OCCCn1c(C(=O)O)c(C)c3c-2c(Cl)ccc31 |  | 12 nM |  |  |  | 
11 | Cc1nn(C)c2c1CSCc1cc(n(C)n1)CCc1cc(c3ccc(F)cc3c1)OCCCc1c(C(=O)[O-])n(C)c3c-2c(Cl)ccc13.[Na+] | 550 µM | 10 nM | 243 | 0.041 nM | < 0.03 µM | 
12 | Cn1nc2cc1CCc1cc(c3ccc(F)cc3c1)OCCCc1c(C(=O)O)[nH]c3c(c(Cl)ccc13)-c1c(cnn1C)CSC2 |  | 202 nM | 4300 | 0.047 nM |  | 
13 | Cc1nn(C)c2c1CSCc1cc(n(C)n1)CSc1cc(c3ccccc3c1)OCCCc1c(C(=O)O)n(C)c3c-2c(Cl)ccc13 | 9.7 µM (≈ 6.52 µg/mL) | 54 nM | 1350 | 0.04 nM | < 0.27 µM | 
